Results as given in ChEMBL document CHEMBL1201862, “PubChem BioAssay data set” (2004).
Calls of active or inactive are those of the source. Cut-off read from the data, not from the text of the source, for most assays here: actives have a measured AC50 and inactives only a lower limit.

What was measured:
[1] = target: T1, Replicative DNA helicase DnaB (Mycobacterium tuberculosis, UniProt P9WMR3); experiment: DnaB intein splicing inhibitors, dose response, biochemical, cell-free fluorescence (AID 449749); assay type: functional
T1 sequence (P9WMR3 whole entry): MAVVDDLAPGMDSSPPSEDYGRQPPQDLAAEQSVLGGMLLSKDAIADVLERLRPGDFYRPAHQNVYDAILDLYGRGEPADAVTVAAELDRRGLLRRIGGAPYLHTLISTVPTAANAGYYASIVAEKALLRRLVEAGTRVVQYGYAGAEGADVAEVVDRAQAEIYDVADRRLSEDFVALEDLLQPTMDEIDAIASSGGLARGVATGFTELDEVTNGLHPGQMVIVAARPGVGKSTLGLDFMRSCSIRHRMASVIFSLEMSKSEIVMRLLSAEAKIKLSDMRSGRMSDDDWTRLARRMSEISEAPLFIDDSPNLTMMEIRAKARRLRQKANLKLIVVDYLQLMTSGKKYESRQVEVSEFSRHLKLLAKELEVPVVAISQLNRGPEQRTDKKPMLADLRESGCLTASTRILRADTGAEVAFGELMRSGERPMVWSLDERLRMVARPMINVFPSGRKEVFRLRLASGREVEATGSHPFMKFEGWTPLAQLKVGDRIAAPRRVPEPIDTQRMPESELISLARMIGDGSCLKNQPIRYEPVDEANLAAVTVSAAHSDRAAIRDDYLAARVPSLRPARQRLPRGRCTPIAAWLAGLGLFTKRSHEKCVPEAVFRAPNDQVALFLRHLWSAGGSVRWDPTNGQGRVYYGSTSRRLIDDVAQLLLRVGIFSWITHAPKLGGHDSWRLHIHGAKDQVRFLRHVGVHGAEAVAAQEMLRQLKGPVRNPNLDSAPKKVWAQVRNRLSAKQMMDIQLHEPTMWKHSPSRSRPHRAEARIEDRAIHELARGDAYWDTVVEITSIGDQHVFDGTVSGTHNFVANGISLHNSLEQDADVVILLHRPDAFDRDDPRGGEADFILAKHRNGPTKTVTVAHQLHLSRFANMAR

Protein RecA = target: T2, Protein RecA (Mycobacterium tuberculosis, UniProt P9WHJ3); experiment: Fluorescence Cell-Free Homogeneous Dose Retest to Identify Inhibitors of RecA-Intein Splicing Activity. [Related pubchem assays (depositor defined):AID2097, AID2223, AID489010, AID492950]; assay type: functional
T2 sequence (P9WHJ3 whole entry): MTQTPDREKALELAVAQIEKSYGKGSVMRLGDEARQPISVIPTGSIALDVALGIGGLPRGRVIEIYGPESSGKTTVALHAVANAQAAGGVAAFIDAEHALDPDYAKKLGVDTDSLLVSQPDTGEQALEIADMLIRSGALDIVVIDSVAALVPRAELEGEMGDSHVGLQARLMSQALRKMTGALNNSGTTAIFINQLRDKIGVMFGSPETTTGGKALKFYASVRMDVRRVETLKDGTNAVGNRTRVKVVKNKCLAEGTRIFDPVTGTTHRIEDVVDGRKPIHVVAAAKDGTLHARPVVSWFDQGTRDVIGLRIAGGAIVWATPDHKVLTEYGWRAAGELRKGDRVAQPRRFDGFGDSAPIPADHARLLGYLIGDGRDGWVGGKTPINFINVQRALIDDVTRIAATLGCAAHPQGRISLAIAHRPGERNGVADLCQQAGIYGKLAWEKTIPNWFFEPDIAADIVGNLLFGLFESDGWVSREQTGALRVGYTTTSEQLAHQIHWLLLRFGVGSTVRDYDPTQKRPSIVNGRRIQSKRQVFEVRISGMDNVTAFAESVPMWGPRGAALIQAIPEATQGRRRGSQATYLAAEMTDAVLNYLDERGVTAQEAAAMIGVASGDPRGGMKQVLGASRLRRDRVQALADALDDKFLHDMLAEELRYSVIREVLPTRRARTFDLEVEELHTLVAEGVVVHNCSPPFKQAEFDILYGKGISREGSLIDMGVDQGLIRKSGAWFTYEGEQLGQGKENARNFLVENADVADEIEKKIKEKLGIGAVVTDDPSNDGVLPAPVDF

[2] = target: T3, Histone-lysine N-methyltransferase NSD2 (Homo sapiens, UniProt O96028); assay type: biochemical
T3 sequence (O96028 whole entry): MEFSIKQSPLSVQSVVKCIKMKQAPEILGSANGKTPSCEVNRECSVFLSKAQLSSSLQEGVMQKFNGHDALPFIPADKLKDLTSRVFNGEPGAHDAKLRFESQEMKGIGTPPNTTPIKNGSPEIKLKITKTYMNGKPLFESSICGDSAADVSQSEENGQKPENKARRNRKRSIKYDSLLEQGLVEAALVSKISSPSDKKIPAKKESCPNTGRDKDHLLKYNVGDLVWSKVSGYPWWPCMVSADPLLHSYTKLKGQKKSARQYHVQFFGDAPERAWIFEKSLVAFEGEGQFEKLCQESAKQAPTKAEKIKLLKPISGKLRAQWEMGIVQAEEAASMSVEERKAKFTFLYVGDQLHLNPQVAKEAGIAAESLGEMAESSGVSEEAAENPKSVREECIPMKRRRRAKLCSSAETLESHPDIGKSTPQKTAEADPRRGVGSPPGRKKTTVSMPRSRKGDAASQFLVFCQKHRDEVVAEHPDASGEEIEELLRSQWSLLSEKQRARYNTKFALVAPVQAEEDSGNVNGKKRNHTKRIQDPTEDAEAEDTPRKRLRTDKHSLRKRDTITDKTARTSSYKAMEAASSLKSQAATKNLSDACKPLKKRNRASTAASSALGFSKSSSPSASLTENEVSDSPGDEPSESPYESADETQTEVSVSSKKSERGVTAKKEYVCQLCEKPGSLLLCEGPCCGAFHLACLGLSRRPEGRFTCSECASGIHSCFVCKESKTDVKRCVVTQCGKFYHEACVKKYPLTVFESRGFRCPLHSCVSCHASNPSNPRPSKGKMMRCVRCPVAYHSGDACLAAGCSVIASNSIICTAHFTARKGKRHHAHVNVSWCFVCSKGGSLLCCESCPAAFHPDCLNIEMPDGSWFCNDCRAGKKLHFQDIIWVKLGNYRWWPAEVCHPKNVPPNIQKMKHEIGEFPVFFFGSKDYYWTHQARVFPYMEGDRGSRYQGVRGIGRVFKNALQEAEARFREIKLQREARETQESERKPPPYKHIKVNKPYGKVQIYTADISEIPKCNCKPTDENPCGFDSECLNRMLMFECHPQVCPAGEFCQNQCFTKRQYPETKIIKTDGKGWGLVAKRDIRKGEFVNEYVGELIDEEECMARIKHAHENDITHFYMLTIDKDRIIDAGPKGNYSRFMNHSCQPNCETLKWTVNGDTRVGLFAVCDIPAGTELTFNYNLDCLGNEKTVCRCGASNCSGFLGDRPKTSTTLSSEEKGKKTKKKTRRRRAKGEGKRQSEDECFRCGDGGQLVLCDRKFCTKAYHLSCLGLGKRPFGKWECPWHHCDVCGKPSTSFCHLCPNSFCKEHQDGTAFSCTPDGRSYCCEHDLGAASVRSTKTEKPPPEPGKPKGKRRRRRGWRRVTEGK

| SMILES | AC50 [1] | EC50 (Protein RecA) | AC50 [2] |
| --- | --- | --- | --- |
| N#Cc1c(N2CCCCC2)nc(N)c2c(N)nc(SCC(=O)O)cc12 | 24.9 µM (active) | 9.14 µM (active) |  |
| CC1(C)Cc2ccccc2C2=NNC(=O)C2=N1 | 0.343 µM (active) | 1.17 µM (active) | 16.4 µM (active) |
| CCc1ccc(S(=O)(=O)Nc2cc(SCC(=O)O)c(O)c3ccccc23)cc1 | 0.77 µM (active) | 0.217 µM (active) | 4.83 µM (active) |
| O=[N+]([O-])c1ccc(Sc2cccc[n+]2[O-])c2nonc12 | 5.25 µM (active) | 4.93 µM (active) | 5.12 µM (active) |
| Oc1c(Cl)cc(Cl)c(Cl)c1Cc1c(O)c(Cl)cc(Cl)c1Cl [HEXACHLOROPHENE] | 1.81 µM (active) | 7.27 µM (active) |  |
